The results in this text go back to PMC11357992, “Non-invasive mapping of systemic neutrophil dynamics upon cardiovascular injury” (Nature Cardiovascular Research, 2023).

One experiment has as its system infarcted heart. Nature of the experiment: Cardiac 19F MRI signal after MI (in vivo, time course, correlation with LGE). Also noted: species or system mouse. As to the method:
For labeling of neutrophils before MI, mice were anesthetized (1.5% isoflurane) and 1 mmol per kg BW PFCs were injected intravenously via the tail vein on 3 consecutive days. Induction of MI was essentially carried out as previously described. For inhibiting the egress of neutrophils from the bone marrow in a subset of experiments, a cocktail of neutralizing antibodies was injected i.p. 1 h before and 4 h after MI (CXCL1, CXCL2, G-CSF, GM-CSF, 50 µg each, Thermo Fisher). To generate neutropenic mice, 48 and 24 h before MI, 500 µg of the Ly6G-depletion antibody (BioXcell, clone 1A8) was injected i.p. in independent experiments.
All experiments were performed with a vertical 9.4 T Bruker AVANCE^III Wide Bore NMR spectrometer (Bruker) driven by ParaVision 5.1 and operating at frequencies of 400.21 MHz for ^1H measurements and 376.54 MHz for ^19F measurements using a Bruker microimaging unit, Micro2.5, with actively shielded gradient sets (1.5 T m^−1). Data were acquired using a 25-mm quadrature ^19F resonator with one channel tunable to both ^1H and ^19F. Mice were anesthetized with 1.5% isoflurane and kept at 37 °C. After acquisition of morphological ^1H images, the resonator was tuned to ^19F, and anatomically matching ^19F images were recorded essentially as described previously.
Images of mouse hearts were acquired in short-axis orientation using a retrospectively triggered fast low-angle shot cine sequence (IntragateFLASH, Bruker) as described previously. Thereafter, hearts were excised, washed and fixed with PFA for 3D high-resolution post-mortem MRI: ^1H FISP, TR = 4 ms, FOV = 1.00 × 1.00 × 1.00 cm³, matrix = 128 × 64 × 128, tAcq 151 min; ^19F RARE, TR = 2,500 ms, FOV = 1.00 × 1.00 × 1.00 cm³, matrix = 32 × 32 × 32, tAcq = 10 h.

For the next experiment, the system named is murine neutrophils. Nature of the experiment: 19F MRI of isolated murine neutrophils incubated with mNPPFCs/ConPFCs. The format is cell-based, mouse. The conditions noted are these: 4 × 10^6 bone marrow neutrophils incubated 3 h at 37 °C with 50 µl PFCs; individual experiments. As to the method:
A total of 4 × 10^6 neutrophils isolated from bone marrow with the EasySep Mouse Neutrophil Enrichment Kit (Stemcell Technologies) were resuspended in 1 ml DMEM and incubated for 3 h with 50 µl ^mNPPFCs or ^ConPFCs at 37 °C. Afterward, cells were washed three times with PBS, fixed with PFA, pelleted by centrifugation and analyzed by ^1H/^19F MRI.
Extended Data Fig. 2 Specific targeting of neutrophils by ^mNPPFCs. a, Flow cytometric analysis of murine blood leukocytes incubated with ^mNPPFCs over 80 min illustrating their predominant uptake by neutrophils (red) as compared to monocytes (blue) and lymphocytes (gray). b, To further validate specificity, binding of CD177 mAb as well as incorporation of ^mNPPFCs under basal and LPS-stimulated conditions were determined. Almost no binding/uptake into classical or non-classical monocytes as well as macrophages or eosinophils could be detected. […] Subsequently, cells were analyzed by ^1H/^19F MRI. Left: ^1H/^19F MRI of centrifugation tubes with neutrophils treated with ^mNPPFCs (lower panel) or ^ConPFCs (upper panel). […] Quantification of ^19F signals (4th column) clearly indicate substantial stronger ^19F uptake in ^mNPPFC-treated neutrophils (red) compared to cells incubated with ^ConPFCs (gray); a.u. = arbitrary units. […]

Where “and” joins values, the source holds several entries; their conditions need not be identical. Identical values can stand only once. Where no end group is shown, it is not given here. Side-chain parts run from the residue outwards. rhodamine‑labelled PEGylated perfluoro‑15‑crown‑5 ether nanoemulsion = not defined here; carboxyfluorescein = N-terminal fluorescence label (CF)

As for “mNPPFCs: PEGylated rhodamine-labeled perfluoro-15-crown-5 ether nanoemulsion (maleimide PFCs) coupled with murine neutrophil-specific peptide mNP (carboxyfluorescein-DFYKPMPNLRITGGGC([maleimide‑PEG2000‑DSPE-rhodamine‑labelled PEGylated perfluoro‑15‑crown‑5 ether nanoemulsion]); reading uncertain; also: printed as DFYKPMPNLRIT-GGG-C)”, the fluorine signal in the experiment with infarcted heart (cardiac 19F MRI after MI, paired with infarct size (correlation), panel A raw data, single animals) is 1143260.00 and 189700.00 and 404383.00 and 657147.00 and 1197310.00 and 718148.00. The “cardiac 19F signal, Sham” value in the experiment on infarcted heart (in vivo 19F MRI, Sham (substance not given), single animals) was 79451 and 78829 and 92374 and 48275 and 58581 and 66158. The “cardiac 19F signal after MI” value with infarcted heart (in vivo 19F MRI, mice with MI, panel C raw data, single animals) was 325890 and 570535 and 698329 and 580045 and 224755 and 325233 and 312147 and 344837 and 567674 and 107303 and 326458 and 189700 and 404383 and 657147 and 718148. The “cardiac 19F signal, 1h” value in the experiment with infarcted heart (time course after MI, 1h, panel B raw data, single animals #1-#6) was 153579.00 and 401063.98 and 321133.97 and 254881.37 and 314977.20 and 322448.95. The “cardiac 19F signal, 3h” value in the experiment with infarcted heart (time course after MI, 3h, single animals) was 445129.00 and 539772.19 and 408267.20 and 394516.08 and 617532.55. Further, the “cardiac 19F signal, 6h” value in the experiment with infarcted heart (time course after MI, 6h, single animals) was 643519.00 and 466668.95 and 433563.34 and 788134.14 and 582620.85. The “cardiac 19F signal, 24h” value with infarcted heart (time course after MI, 24h, single animals) was 1143260.00 and 608391.86 and 841920.06 and 1092840.00 and 1200290.00 and 913025.41. Also, in the experiment with infarcted heart (time course after MI, 48h, single animals), the “cardiac 19F signal, 48h” value is 563325.00 and 546371.63 and 835937.39 and 937854.02 and 656412.62. The “cardiac 19F signal, 72h” value with infarcted heart (time course after MI, 72h, single animals) is 589807.00 and 491276.01 and 1221090.00 and 1312800.00 and 804982.61. Moreover, the “19F signal of neutrophil cell pellet (19F MRI)” value in the experiment on murine neutrophils is 349357 a.u. and 181876 a.u. and 297311 a.u. and 383564 a.u. and 306579 a.u.
